Tests used:
D1 = biological target: T1, D1 (Homo sapiens, UniProt P21728); assay: PDSP receptor binding, D1; settings: PDSP primary screen at 10 µM
T1 construct: purchased NIMH PDSP (Psychoactive Drug Screening Program, Roth lab, Case Western Reserve)

α2A = biological target: T2, α2A (Homo sapiens, UniProt P08913); assay: PDSP receptor binding, α2A; settings: PDSP primary screen at 10 µM
T2 construct: purchased NIMH PDSP (Psychoactive Drug Screening Program, Roth lab, Case Western Reserve)

DOR = biological target: T3, DOR (Homo sapiens, UniProt P41143); assay: PDSP receptor binding, DOR; settings: PDSP primary screen at 10 µM
T3 construct: purchased NIMH PDSP (Psychoactive Drug Screening Program, Roth lab, Case Western Reserve)

H1 = biological target: T4, H1 (Homo sapiens, UniProt P35367); assay: PDSP receptor binding, H1; settings: PDSP primary screen at 10 µM
T4 construct: purchased NIMH PDSP (Psychoactive Drug Screening Program, Roth lab, Case Western Reserve)

α5β3γ2 GABAA/BzR = α5β3γ2 GABAA/BzR (Homo sapiens, UniProt P18507+P31644); assay: Competition binding to HEK cell membranes, α5β3γ2; set-up: expressed in transfected cells; settings: Ki α5
M3 = biological target: T5, M3 (Homo sapiens, UniProt P20309); assay: PDSP receptor binding, M3; settings: PDSP primary screen at 10 µM
T5 construct: purchased NIMH PDSP (Psychoactive Drug Screening Program, Roth lab, Case Western Reserve)

Beta2 = biological target: T6, Beta2 (Homo sapiens, UniProt P07550); assay: PDSP receptor binding, Beta2; settings: PDSP primary screen at 10 µM
T6 construct: purchased NIMH PDSP (Psychoactive Drug Screening Program, Roth lab, Case Western Reserve)

C57BL/6J mice = format: in vivo
Description: Figure 3 XLi-093 (4) effects on cognition enhancement by Wenger et al. (data on statistical significance not shown, unpublished results). Effects of 4 on cognition from the mean delay achieved by C57BL/6J mice titrating delayed matching-to-position schedule.

D3 = biological target: T7, D3 (Homo sapiens, UniProt P35462); assay: PDSP receptor binding, D3; settings: PDSP primary screen at 10 µM
T7 construct: purchased NIMH PDSP (Psychoactive Drug Screening Program, Roth lab, Case Western Reserve)

α2β3γ2 GABAA receptor = settings: cited from earlier work
α1β3γ2 GABAA receptor = settings: cited from earlier work
α1A = biological target: T8, α1A (Homo sapiens, UniProt P35348); assay: PDSP receptor binding, α1A; settings: PDSP primary screen at 10 µM
T8 construct: purchased NIMH PDSP (Psychoactive Drug Screening Program, Roth lab, Case Western Reserve)

α3β3γ2 GABAA receptor = settings: cited from earlier work
[1] = PDSP receptor binding, β1B; settings: PDSP primary screen at 10 µM
[2] = test system: other receptors (PDSP panel); assay: Full PDSP panel receptor binding; settings: NIMH PDSP, Case Western Reserve
M2 = biological target: T9, M2 (Homo sapiens, UniProt P08172); assay: PDSP receptor binding, M2; settings: PDSP primary screen at 10 µM
T9 construct: purchased NIMH PDSP (Psychoactive Drug Screening Program, Roth lab, Case Western Reserve)

α6β3γ2 BzR/GABA(A) = settings: Figure 1; LTK cells; read-out: Binding affinity α6; cited from earlier work
CB2 = biological target: T10, CB2 (Homo sapiens, UniProt P34972); assay: PDSP receptor binding, CB2; settings: PDSP primary screen at 10 µM
T10 construct: purchased NIMH PDSP (Psychoactive Drug Screening Program, Roth lab, Case Western Reserve)

Imidaz oline = assay: PDSP receptor binding, Imidazoline; settings: PDSP primary screen at 10 µM
5ht5a = biological target: T11, 5ht5a (Homo sapiens, UniProt P47898); assay: PDSP receptor binding, 5ht5a; settings: PDSP primary screen at 10 µM
T11 construct: purchased NIMH PDSP (Psychoactive Drug Screening Program, Roth lab, Case Western Reserve)

M1 = biological target: T12, M1 (Homo sapiens, UniProt P11229); assay: PDSP receptor binding, M1; settings: PDSP primary screen at 10 µM
T12 construct: purchased NIMH PDSP (Psychoactive Drug Screening Program, Roth lab, Case Western Reserve)

5ht1e = biological target: T13, 5ht1e (Homo sapiens, UniProt P28566); assay: PDSP receptor binding, 5ht1e; settings: PDSP primary screen at 10 µM
T13 construct: purchased NIMH PDSP (Psychoactive Drug Screening Program, Roth lab, Case Western Reserve)

H2 = biological target: T14, H2 (Homo sapiens, UniProt P25021); assay: PDSP receptor binding, H2; settings: PDSP primary screen at 10 µM
T14 construct: purchased NIMH PDSP (Psychoactive Drug Screening Program, Roth lab, Case Western Reserve)

D4 = biological target: T15, D4 (Homo sapiens, UniProt P21917); assay: PDSP receptor binding, D4; settings: PDSP primary screen at 10 µM
T15 construct: purchased NIMH PDSP (Psychoactive Drug Screening Program, Roth lab, Case Western Reserve)

5ht2a = biological target: T16, 5ht2a (Homo sapiens, UniProt P28223); assay: PDSP receptor binding, 5ht2a; settings: PDSP primary screen at 10 µM
T16 construct: purchased NIMH PDSP (Psychoactive Drug Screening Program, Roth lab, Case Western Reserve)

H3 = biological target: T17, H3 (Homo sapiens, UniProt Q9Y5N1); assay: PDSP receptor binding, H3; settings: PDSP primary screen at 10 µM
T17 construct: purchased NIMH PDSP (Psychoactive Drug Screening Program, Roth lab, Case Western Reserve)

α2C = biological target: T18, α2C (Homo sapiens, UniProt P18825); assay: PDSP receptor binding, α2C; settings: PDSP primary screen at 10 µM
T18 construct: purchased NIMH PDSP (Psychoactive Drug Screening Program, Roth lab, Case Western Reserve)

α4β3γ2 BzR/GABA(A) = settings: Figure 1; LTK cells; read-out: Binding affinity α4; cited from earlier work
5ht6 = biological target: T19, 5ht6 (Homo sapiens, UniProt P50406); assay: PDSP receptor binding, 5ht6; settings: PDSP primary screen at 10 µM
T19 construct: purchased NIMH PDSP (Psychoactive Drug Screening Program, Roth lab, Case Western Reserve)

DAT = biological target: T20, DAT (Homo sapiens, UniProt Q01959); assay: PDSP receptor binding, DAT; settings: PDSP primary screen at 10 µM
T20 construct: purchased NIMH PDSP (Psychoactive Drug Screening Program, Roth lab, Case Western Reserve)

α3β3γ2 BzR/GABA(A) = settings: Figure 1; LTK cells; read-out: Binding affinity α3; cited from earlier work
α6β3γ2 GABAA/BzR = α6β3γ2 GABAA/BzR (Homo sapiens, UniProt P18507+Q16445); assay: Competition binding to HEK cell membranes, α6β3γ2; set-up: expressed in transfected cells; settings: Ki α6
5ht1a = biological target: T21, 5ht1a (Homo sapiens, UniProt P08908); assay: PDSP receptor binding, 5ht1a; settings: PDSP primary screen at 10 µM
T21 construct: purchased NIMH PDSP (Psychoactive Drug Screening Program, Roth lab, Case Western Reserve)

CB1 = biological target: T22, CB1 (Homo sapiens, UniProt P21554); assay: PDSP receptor binding, CB1; settings: PDSP primary screen at 10 µM
T22 construct: purchased NIMH PDSP (Psychoactive Drug Screening Program, Roth lab, Case Western Reserve)

MOR = biological target: T23, MOR (Homo sapiens, UniProt P35372); assay: PDSP receptor binding, MOR; settings: PDSP primary screen at 10 µM
T23 construct: purchased NIMH PDSP (Psychoactive Drug Screening Program, Roth lab, Case Western Reserve)

D2 = biological target: T24, D2 (Homo sapiens, UniProt P14416); assay: PDSP receptor binding, D2; settings: PDSP primary screen at 10 µM
T24 construct: purchased NIMH PDSP (Psychoactive Drug Screening Program, Roth lab, Case Western Reserve)

α1β3γ2 BzR/GABA(A) = settings: Figure 1; LTK cells; read-out: Binding affinity α1; cited from earlier work
α2B = biological target: T25, α2B (Homo sapiens, UniProt P18089); assay: PDSP receptor binding, α2B; settings: PDSP primary screen at 10 µM
T25 construct: purchased NIMH PDSP (Psychoactive Drug Screening Program, Roth lab, Case Western Reserve)

M5 = biological target: T26, M5 (Homo sapiens, UniProt P08912); assay: PDSP receptor binding, M5; settings: PDSP primary screen at 10 µM
T26 construct: purchased NIMH PDSP (Psychoactive Drug Screening Program, Roth lab, Case Western Reserve)

SERT = biological target: T27, SERT (Homo sapiens, UniProt P31645); assay: PDSP receptor binding, SERT; settings: PDSP primary screen at 10 µM
T27 construct: purchased NIMH PDSP (Psychoactive Drug Screening Program, Roth lab, Case Western Reserve)

5ht2b = biological target: T28, 5ht2b (Homo sapiens, UniProt P41595); assay: PDSP receptor binding, 5ht2b; settings: PDSP primary screen at 10 µM
T28 construct: purchased NIMH PDSP (Psychoactive Drug Screening Program, Roth lab, Case Western Reserve)

C#Cc1ccc2c(c1)C(=O)N(C)Cc1c(C(=O)OCCCOC(=O)c3ncn4c3CN(C)C(=O)c3cc(C#C)ccc3-4)ncn1-2 [XLi-093 (4), 1,3-Bis(8-acetyleno-5,6-dihydro-5-methyl-6-oxo-4H-imidazo[1,5a][1,4]benzodiazepine-3-carboxy) propyl diester]
D1 binding (D1): ∗ (“∗” indicates “primary missed” (<50% inhibition at 10 µM))
α2A binding (α2A): ∗ (“∗” indicates “primary missed” (<50% inhibition at 10 µM))
DOR binding (DOR): ∗ (“∗” indicates “primary missed” (<50% inhibition at 10 µM))
H1 binding (H1): ∗ (“∗” indicates “primary missed” (<50% inhibition at 10 µM))
Ki (α5β3γ2 GABAA/BzR): 0.015 µM
M3 binding (M3): ∗ (“∗” indicates “primary missed” (<50% inhibition at 10 µM))
Beta2 binding (Beta2): ∗ (“∗” indicates “primary missed” (<50% inhibition at 10 µM))
performance (mean delay achieved) (C57BL/6J mice; C57BL/6J mice, preliminary data, unpublished results (Wenger et al.)): enhances performance
crossing of the blood brain barrier (C57BL/6J mice; inferred from the cognition effect in mice): does cross the blood brain barrier
D3 binding (D3): ∗ (“∗” indicates “primary missed” (<50% inhibition at 10 µM))
modulation of GABA induced chloride flux, α2β3γ2 (α2β3γ2 GABAA receptor; at 1 μM): did not modulate
influence on benzodiazepine (Valium) stimulation of GABA-induced current, α2β3γ2 (α2β3γ2 GABAA receptor): barely influenced
modulation of GABA induced chloride flux, α1β3γ2 (α1β3γ2 GABAA receptor; at 1 μM): did not modulate
influence on benzodiazepine (Valium) stimulation of GABA-induced current, α1β3γ2 (α1β3γ2 GABAA receptor): barely influenced
α1A binding (α1A): ∗ (“∗” indicates “primary missed” (<50% inhibition at 10 µM))
modulation of GABA induced chloride flux, α3β3γ2 (α3β3γ2 GABAA receptor; at 1 μM): did not modulate
influence on benzodiazepine (Valium) stimulation of GABA-induced current, α3β3γ2 (α3β3γ2 GABAA receptor): barely influenced
β1B binding [1]: ∗ (“∗” indicates “primary missed” (<50% inhibition at 10 µM))
full panel receptor binding [2]: do not bind to other receptors at levels of concern
M2 binding (M2): ∗ (“∗” indicates “primary missed” (<50% inhibition at 10 µM))
Ki (α6β3γ2 BzR/GABA(A)): > 2 µM
CB2 binding (CB2): ∗ (“∗” indicates “primary missed” (<50% inhibition at 10 µM))
Imidaz oline binding (Imidaz oline): ∗ (“∗” indicates “primary missed” (<50% inhibition at 10 µM))
5ht5a binding (5ht5a): ∗ (“∗” indicates “primary missed” (<50% inhibition at 10 µM))
M1 binding (M1): ∗ (“∗” indicates “primary missed” (<50% inhibition at 10 µM))
5ht1e binding (5ht1e): ∗ (“∗” indicates “primary missed” (<50% inhibition at 10 µM))
H2 binding (H2): ∗ (“∗” indicates “primary missed” (<50% inhibition at 10 µM))
D4 binding (D4): ∗ (“∗” indicates “primary missed” (<50% inhibition at 10 µM))
5ht2a binding (5ht2a): ∗ (“∗” indicates “primary missed” (<50% inhibition at 10 µM))
H3 binding (H3): ∗ (“∗” indicates “primary missed” (<50% inhibition at 10 µM))
α2C binding (α2C): ∗ (“∗” indicates “primary missed” (<50% inhibition at 10 µM))
Ki (α4β3γ2 BzR/GABA(A)): 1.55 µM
5ht6 binding (5ht6): ∗ (“∗” indicates “primary missed” (<50% inhibition at 10 µM))
DAT binding (DAT): ∗ (“∗” indicates “primary missed” (<50% inhibition at 10 µM))
Ki (α3β3γ2 BzR/GABA(A)): 0.858 µM
Ki (α6β3γ2 GABAA/BzR): > 2 µM
5ht1a binding (5ht1a): ∗ (“∗” indicates “primary missed” (<50% inhibition at 10 µM))
CB1 binding (CB1): ∗ (“∗” indicates “primary missed” (<50% inhibition at 10 µM))
MOR binding (MOR): ∗ (“∗” indicates “primary missed” (<50% inhibition at 10 µM))
D2 binding (D2): ∗ (“∗” indicates “primary missed” (<50% inhibition at 10 µM))
Ki (α1β3γ2 BzR/GABA(A)): > 1 µM
α2B binding (α2B): ∗ (“∗” indicates “primary missed” (<50% inhibition at 10 µM))
M5 binding (M5): ∗ (“∗” indicates “primary missed” (<50% inhibition at 10 µM))
SERT binding (SERT): ∗ (“∗” indicates “primary missed” (<50% inhibition at 10 µM))
5ht2b binding (5ht2b): ∗ (“∗” indicates “primary missed” (<50% inhibition at 10 µM))

From paper PMC4657098, “A Review of the Updated Pharmacophore for the Alpha 5 GABA(A) Benzodiazepine Receptor Model” (International Journal of Medicinal Chemistry, 2015)
